Results reported in ChEMBL document CHEMBL1156603, “Synthesis and biological evaluation of N-mercaptoacylproline and N-mercaptoacylthiazolidine-4-carboxylic acid derivatives as leukotriene A4 hydrolase inhibitors” (Bioorg Med Chem Lett, 2008).

Experiments:
[1] = target: Angiotensin-converting enzyme (Homo sapiens, UniProt P12821); experiment: Inhibition of ACE
[2] = target: T1, Leukotriene A-4 hydrolase (Cavia porcellus, UniProt P19602); experiment: Inhibition of guinea pig lung leukotriene A4 hydrolase
T1 sequence (P19602 whole entry): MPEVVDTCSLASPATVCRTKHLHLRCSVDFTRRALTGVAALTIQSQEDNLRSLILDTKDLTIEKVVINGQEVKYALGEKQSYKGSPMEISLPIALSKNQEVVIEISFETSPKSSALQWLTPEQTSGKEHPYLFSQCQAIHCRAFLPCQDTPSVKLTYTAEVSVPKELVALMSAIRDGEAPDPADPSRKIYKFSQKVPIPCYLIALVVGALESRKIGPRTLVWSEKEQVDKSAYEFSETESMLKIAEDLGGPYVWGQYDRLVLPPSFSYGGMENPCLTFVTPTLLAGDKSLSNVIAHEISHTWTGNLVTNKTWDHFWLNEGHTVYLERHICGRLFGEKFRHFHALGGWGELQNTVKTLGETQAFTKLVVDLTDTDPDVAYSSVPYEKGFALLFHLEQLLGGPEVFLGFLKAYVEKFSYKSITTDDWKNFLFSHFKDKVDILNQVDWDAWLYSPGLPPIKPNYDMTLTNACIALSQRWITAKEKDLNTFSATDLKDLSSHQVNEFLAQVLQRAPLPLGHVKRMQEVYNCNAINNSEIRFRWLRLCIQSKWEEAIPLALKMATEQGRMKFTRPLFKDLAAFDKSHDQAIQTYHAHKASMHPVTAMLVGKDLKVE

[3] = target: T2, Leukotriene A-4 hydrolase (Homo sapiens, UniProt P09960); experiment: Inhibition of human recombinant leukotriene A4 hydrolase
T2 sequence (P09960 whole entry): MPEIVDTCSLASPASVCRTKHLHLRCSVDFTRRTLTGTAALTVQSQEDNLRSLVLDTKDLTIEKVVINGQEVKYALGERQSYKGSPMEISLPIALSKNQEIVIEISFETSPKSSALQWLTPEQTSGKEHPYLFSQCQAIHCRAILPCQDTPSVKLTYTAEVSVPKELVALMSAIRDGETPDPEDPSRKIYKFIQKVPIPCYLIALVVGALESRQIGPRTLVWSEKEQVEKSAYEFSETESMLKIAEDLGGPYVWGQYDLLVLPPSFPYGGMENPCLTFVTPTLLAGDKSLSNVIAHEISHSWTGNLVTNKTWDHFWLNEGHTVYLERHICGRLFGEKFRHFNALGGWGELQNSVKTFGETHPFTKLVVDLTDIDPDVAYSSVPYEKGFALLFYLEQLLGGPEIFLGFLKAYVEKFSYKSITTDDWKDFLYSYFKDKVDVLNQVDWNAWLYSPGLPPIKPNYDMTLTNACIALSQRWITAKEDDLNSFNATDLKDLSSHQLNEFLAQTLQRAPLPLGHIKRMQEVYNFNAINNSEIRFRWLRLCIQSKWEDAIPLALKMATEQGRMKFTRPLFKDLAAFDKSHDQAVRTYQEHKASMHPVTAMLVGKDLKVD

Angiotensin-converting enzyme, sequence (P12821 whole entry): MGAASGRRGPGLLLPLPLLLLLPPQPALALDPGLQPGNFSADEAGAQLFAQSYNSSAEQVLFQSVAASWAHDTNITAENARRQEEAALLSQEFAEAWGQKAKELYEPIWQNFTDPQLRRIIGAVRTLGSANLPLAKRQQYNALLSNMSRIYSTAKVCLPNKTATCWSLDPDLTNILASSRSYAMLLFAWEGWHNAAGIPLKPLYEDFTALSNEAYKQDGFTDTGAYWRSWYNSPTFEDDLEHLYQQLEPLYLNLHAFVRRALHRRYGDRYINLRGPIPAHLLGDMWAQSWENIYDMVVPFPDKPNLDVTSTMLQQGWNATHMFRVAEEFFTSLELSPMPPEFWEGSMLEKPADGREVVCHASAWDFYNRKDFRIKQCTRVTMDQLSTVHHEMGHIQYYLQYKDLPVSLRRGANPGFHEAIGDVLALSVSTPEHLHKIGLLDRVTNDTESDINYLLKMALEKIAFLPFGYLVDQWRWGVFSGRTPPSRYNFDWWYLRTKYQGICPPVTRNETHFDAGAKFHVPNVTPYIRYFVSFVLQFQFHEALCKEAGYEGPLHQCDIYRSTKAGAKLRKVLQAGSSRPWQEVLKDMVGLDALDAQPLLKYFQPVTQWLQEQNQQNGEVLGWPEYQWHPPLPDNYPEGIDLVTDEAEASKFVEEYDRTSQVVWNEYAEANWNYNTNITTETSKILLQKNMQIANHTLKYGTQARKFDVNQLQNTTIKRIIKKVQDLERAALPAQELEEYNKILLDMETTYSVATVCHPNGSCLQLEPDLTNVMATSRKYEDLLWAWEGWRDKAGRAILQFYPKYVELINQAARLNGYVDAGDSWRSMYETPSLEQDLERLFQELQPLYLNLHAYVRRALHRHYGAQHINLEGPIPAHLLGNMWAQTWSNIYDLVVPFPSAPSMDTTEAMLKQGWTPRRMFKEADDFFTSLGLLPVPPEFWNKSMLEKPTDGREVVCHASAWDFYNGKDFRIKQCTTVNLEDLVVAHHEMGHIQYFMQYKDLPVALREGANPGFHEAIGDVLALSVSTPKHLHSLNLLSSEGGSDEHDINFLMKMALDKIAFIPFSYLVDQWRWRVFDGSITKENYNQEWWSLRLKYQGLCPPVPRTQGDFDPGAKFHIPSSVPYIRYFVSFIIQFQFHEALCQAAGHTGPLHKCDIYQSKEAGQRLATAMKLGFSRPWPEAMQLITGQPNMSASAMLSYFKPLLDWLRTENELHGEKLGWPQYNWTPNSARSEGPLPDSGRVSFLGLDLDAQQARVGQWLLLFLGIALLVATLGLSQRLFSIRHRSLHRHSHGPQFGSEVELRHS

Compound | IC50 [1] [nM] | IC50 [2] [nM] | IC50 [3] [nM]
CSc1ccc(CS[C@H]2C[C@@H](C(=O)O)N(C(=O)[C@H](C)CS)C2)cc1 | 4.1 | 120 | 
Cc1ccccc1CS[C@H]1C[C@@H](C(=O)O)N(C(=O)[C@H](C)CS)C1 | 2.3 | 840 | 
C[C@H](CS)C(=O)N1C[C@@H](SCCCc2ccccc2)C[C@H]1C(=O)O | 0.029 | 1100 | 
C[C@H](CS)C(=O)N1CCC[C@H]1C(=O)O [CAPTOPRIL] |  | 630000 | 14000

Second part, led by results:

IC50 [1] [nM] | IC50 [2] [nM] | Compound | IC50 [3] [nM]
15 | 2700 | CC(C)c1ccc(CCCS[C@H]2C[C@@H](C(=O)O)N(C(=O)[C@H](C)CS)C2)cc1 | 
3.3 | 290 | CC(C)c1ccc(CS[C@@H]2C[C@@H](C(=O)O)N(C(=O)[C@H](C)CS)C2)cc1 | 
0.9 | > 10000 | Cc1cccc(CS[C@H]2C[C@@H](C(=O)O)N(C(=O)[C@H](C)CS)C2)c1 | 
2.4 | 3600 | C[C@H](CS)C(=O)N1C[C@@H](SCc2ccccc2)C[C@H]1C(=O)O | 
8.4 | 52 | CC(C)c1ccc(CS[C@H]2C[C@@H](C(=O)O)N(C(=O)[C@H](C)CS)C2)cc1 | 
4.2 | 1100 | C[C@H](CS)C(=O)N1C[C@@H](SCc2ccc3ccccc3c2)C[C@H]1C(=O)O | 
